The values that follow come from paper PMC3841161, “De Novo Design and Synthesis of Ultra-Short Peptidomimetic Antibiotics Having Dual Antimicrobial and Anti-Inflammatory Activities” (PLoS ONE, 2013).

The subject of series [1] is human red blood cells (hRBCs). Nature of the series: Hemolytic activity. Format: cell-based. The following applies: 4% (v/v) hRBCs in PBS pH 7.4, 1 h at 37°C, absorbance at 405 nm; maximum concentration 256 µg/mL. The method, then:
Hemolytic activity of peptides was tested against hRBCs. Fresh hRBCs were washed three times with phosphate-buffered saline (PBS; 35-mM phosphate buffer containing 150 mM of NaCl, pH 7.4) by centrifugation for 10 min at 1000×g and then re-suspended in PBS. The peptide solutions (serial two-fold dilutions in PBS) were then added to 100 µL of hRBCs in PBS to give a final volume of 200 µL and a final erythrocyte concentration of 4% (v/v). The resulting suspension was incubated with agitation for 1 h at 37°C. The samples were then centrifuged at 1000×g for 5 min, and hemoglobin release was monitored by measuring the absorbance of the supernatant at 405 nm. No hemolysis (blank) and 100% hemolysis controls consisted of hRBCs suspended in PBS and 0.1% Triton X-100, respectively. Percent hemolysis was calculated using the following equation: [drawing 1]

In a further series the test system is E. coli [KCTC 1682]. Format: cell-based, Escherichia coli. The following applies: broth microdilution, 1% peptone, 18−20 h at 37°C, absorbance at 600 nm. The procedure: (§1) The antimicrobial activity of the peptides against two Gram-positive bacterial strains and two Gram-negative bacterial strains was examined using the broth microdilution method in sterile 96-well plates. Aliquots (100 µL) of a bacterial suspension at 2×10^6 colony-forming units (CFU)/mL in 1% peptone were added to 100 µL of the peptide solution (serial two-fold dilutions in 1% peptone). After incubation for 18−20 h at 37°C, bacterial growth inhibition was determined by measuring the absorbance at 600 nm with a Microplate Autoreader EL 800 (Bio-Tek Instruments, VT). The minimal inhibitory concentration (MIC) was defined as the minimum peptide concentration inhibited bacteria growth. Two types of Gram-positive bacteria (S. epidermidis [KCTC 1917] and S. aureus [KCTC 1621]) and two types of Gram-negative bacteria (E. coli [KCTC 1682] and P. aeruginosa [KCTC 1637]) were procured from the Korean Collection for Type Cultures (KCTC) at the Korea Research Institute of Bioscience and Biotechnology (KRIBB). MRSA samples (CCARM 3089, CCARM 3090, and CCARM 3095) were obtained from the Culture Collection of Antibiotic-Resistant Microbes (CCARM) at Seoul Women's University (Seoul, Korea).

Series [2] relates to hRBCs versus four bacterial strains. As to the kind of experiment: Prokaryotic selectivity (therapeutic index, HC10/GM). The following applies: ratio of HC10 to GM; 512 µg/mL used for HC10 >256 and 128 µg/mL for MIC >64. The method, then: (§2) The prokaryotic selectivity of our designed HDAMPs is defined by the therapeutic index (TI) as a measure of the relative safety of the drug. It is a measure of a peptide's capability to differentiate any pathogen from a host cell. The TI value of each peptide was calculated as the ratio of the HC10 (the peptide concentration that produces 10% hemolysis toward hRBCs) to the geometric mean [GM; the geometric mean of the minimal inhibitory concentration (MIC) against four selected bacterial strains]. Larger values of TI correspond to greater prokaryotic selectivity.

In a further series the test system is S. aureus [KCTC 1621]. Format: cell-based, Staphylococcus aureus. The following applies: broth microdilution, 1% peptone, 18−20 h at 37°C, absorbance at 600 nm. The method, then:
as §1

For series [3], the system named is S. epidermidis [KCTC 1917]. Type of series: cell-based, Staphylococcus epidermidis. The following applies: broth microdilution, 1% peptone, 18−20 h at 37°C, absorbance at 600 nm. The procedure: as §1
Series [4] deals with P. aeruginosa [KCTC 1637]. Type of series: cell-based, Pseudomonas aeruginosa. The following applies: broth microdilution, 1% peptone, 18−20 h at 37°C, absorbance at 600 nm. The method, then:
as §1

The test system of series [5] is four bacterial strains (E. coli, P. aeruginosa, S. epidermidis, S. aureus). Type of series: cell-based. The following applies: four bacterial strains. The method, then: as §2, §1
For another series, the system named is trypsin. As to the kind of experiment: Protease stability by radial diffusion assay. The following applies: 5 µL of 10 mg/mL peptide in 25 µL of 0.2-µg/mL trypsin in PBS, 37°C, text: 24 h, method: 6 h. Format: in vitro ADME. The method, then: E. coli (KCTC 1682) was grown overnight for 18 h at 37°C in 10 mL of LB broth, and then 10 µl of this culture was inoculated into 10 mL of fresh LB and incubated for an additional 3 h at 37°C to obtain mid-logarithmic-phase organisms. For the radial diffusion assay method, a bacteria suspension (2×10^6 CFU/mL in LB) was mixed with 0.7% agarose. The mixture was poured into a 10-cm petri dish after rapidly dispersing. Five microliters of an aqueous peptide stock solution (10 mg/mL) were added to 25 µL of the 0.2-µg/mL trypsin solution in PBS, respectively, and incubated at 37°C for 6 h. The reaction was stopped by freezing with liquid nitrogen, and then 10-µL aliquots were placed in each circle paper (≈6 mm in diameter) put on the agarose plates and then incubated at 37°C overnight. The diameters of the bacterial clearance zones surrounding the circle paper were measured for the quantitation of inhibitory activities.

Series [6] is described as follows: Hydrophobicity by RP-HPLC retention time. Format: physicochemical. The following applies: measure of hydrophobicity; Vydac C18 analytical column 5 µm, 4.6 mm ×250 mm; linear gradient 0–90% acetonitrile in water, 0.05% TFA, 60 min. An excerpt: A series of Trp (W)/Arg (R)–rich peptides [(WR)3-NH2, (WR)2-NH2 and RWR-NH2], reported as being short and potent antimicrobial peptides, were used as sequence templates, and their antimicrobial and hemolytic activities were compared to seven HDAMPs (Figure 2). Matrix-assisted laser-desorption ionization time-of-flight mass spectrometry (MALDI-TOF MS) was used to verify the molecular weight of both Trp/Arg-rich AMPs and the seven HDAMPs. Human cathelicidin LL-37, a potent antimicrobial and anti-inflammatory peptide, served as a positive control for comparing the antimicrobial, hemolytic, and anti-inflammatory activities. The hydrophobicity of all of the peptides was measured with the use of reverse-phase high-performance liquid chromatography (RP-HPLC) retention time (Rt).
All peptides were prepared by Fmoc SPPS methods using Rink amide with an initial loading of 0.61 mmol/g, unless otherwise noted. Fmoc-Arg(Pbf)-OH and other Fmoc-protected amino acids were purchased from Novabiochem. Resins were swollen in DMF for 45 min prior to synthesis. […] The final purity and hydrophobicity of the peptides (>98%) were assessed by RP-HPLC on an analytical Vydac C18 column (4.6 mm ×25 0 mm, 300 Å, 5 µm particle size, Table 3). The molecular masses of purified peptides were determined using MALDI-TOF MS (Shimadzu, Japan).

Residues, ends and D or L forms follow the SMILES beside them.

Consider `N=C(N)NCCC[C@H](NC(=O)[C@H](Cc1c[nH]c2ccccc12)NC(=O)[C@H](CCCNC(=N)N)NC(=O)[C@@H](N)Cc1c[nH]c2ccccc12)C(N)=O` [(WR)2-NH2, reference compound] (H-WRWR-NH2), for which the “% Hemolysis (HC10), peptide concentration that induces 10% hemolysis against human erythrocytes” value in series [1] was >256 (>364.5) µg/mL. Moreover, in the series with E. coli [KCTC 1682], the “Minimal Inhibitory Concentration (MIC) E. coli [KCTC 1682]” value is given as 32 (45.6) µg/mL. For the same compound, the “TI (HC10/GM), therapeutic index” value in series [2] worked out at 19.7. In addition, the “Minimal Inhibitory Concentration (MIC) S. aureus [KCTC 1621]” value in the series with S. aureus [KCTC 1621] was 32 (45.6) µg/mL. The “Minimal Inhibitory Concentration (MIC) S. epidermidis [KCTC 1917]” value in series [3] is reported as 8 (11.4) µg/mL. The “Minimal Inhibitory Concentration (MIC) P. aeruginosa [KCTC 1637]” value in series [4] is 32 (45.6) µg/mL. The “GM, geometric mean of the MIC values against four bacterial strains” value in series [5] was 26 (37) µg/mL.

On to `CC[C@H](C)[C@H](NC(=O)[C@H](CCCCN)NC(=O)[C@H](CCC(=O)O)NC(=O)[C@H](CCCCN)NC(=O)[C@H](CO)NC(=O)[C@H](CCCCN)NC(=O)[C@H](CCCNC(=N)N)NC(=O)[C@H](Cc1ccccc1)NC(=O)[C@H](Cc1ccccc1)NC(=O)[C@H](CC(=O)O)NC(=O)CNC(=O)[C@H](CC(C)C)NC(=O)[C@@H](N)CC(C)C)C(=O)NCC(=O)N[C@@H](CCCCN)C(=O)N[C@@H](CCC(=O)O)C(=O)N[C@@H](Cc1ccccc1)C(=O)N[C@@H](CCCCN)C(=O)N[C@@H](CCCNC(=N)N)C(=O)N[C@H](C(=O)N[C@H](C(=O)N[C@@H](CCC(N)=O)C(=O)N[C@@H](CCCNC(=N)N)C(=O)N[C@H](C(=O)N[C@@H](CCCCN)C(=O)N[C@@H](CC(=O)O)C(=O)N[C@@H](Cc1ccccc1)C(=O)N[C@@H](CC(C)C)C(=O)N[C@@H](CCCNC(=N)N)C(=O)N[C@@H](CC(N)=O)C(=O)N[C@@H](CC(C)C)C(=O)N[C@H](C(=O)N1CCC[C@H]1C(=O)N[C@@H](CCCNC(=N)N)C(=O)N[C@H](C(=O)N[C@@H](CCC(=O)O)C(=O)N[C@@H](CO)C(=O)O)[C@@H](C)O)C(C)C)[C@@H](C)CC)C(C)C)[C@@H](C)CC` [LL-37], for which the “antimicrobial activity against E. coli (KCTC 1682) in the presence of trypsin (in words)” value with trypsin was “completely lost their antimicrobial activities”.

Take `N=C(N)NCCC[C@H](NC(=O)[C@H](Cc1c[n+](CCCCCCCc2ccccc2)cn1CCCCCCCc1ccccc1)NC(=O)[C@H](CCCNC(=N)N)NC(=O)[C@@H](N)Cc1c[n+](CCCCCCCc2ccccc2)cn1CCCCCCCc1ccccc1)C(N)=O` [Tetrameric HDAMP, His((CH2)7C6H5)2-Arg-His((CH2)7C6H5)2-Arg-NH2]: the “RP-HPLC retention time (Rt)” value in [6] came out at 37.7 min.

For `CC[C@H](C)[C@H](NC(=O)CN)C(=O)NCC(=O)N[C@@H](C)C(=O)N[C@H](C(=O)N[C@@H](CC(C)C)C(=O)N[C@@H](CCCCN)C(=O)N[C@H](C(=O)N[C@@H](CC(C)C)C(=O)N[C@H](C(=O)N[C@H](C(=O)NCC(=O)N[C@@H](CC(C)C)C(=O)N1CCC[C@H]1C(=O)N[C@@H](C)C(=O)N[C@@H](CC(C)C)C(=O)N[C@H](C(=O)N[C@@H](CO)C(=O)N[C@@H](Cc1c[nH]c2ccccc12)C(=O)N[C@H](C(=O)N[C@@H](CCCCN)C(=O)N[C@@H](CCCNC(=N)N)C(=O)N[C@@H](CCCCN)C(=O)N[C@@H](CCCNC(=N)N)C(=O)N[C@@H](CCC(N)=O)C(=O)N[C@@H](CCC(N)=O)C(N)=O)[C@@H](C)CC)[C@@H](C)CC)[C@@H](C)O)[C@@H](C)O)C(C)C)C(C)C` [melittin], in the series with trypsin, the “antimicrobial activity against E. coli (KCTC 1682) in the presence of trypsin (in words)” value is on record as “completely lost their antimicrobial activities”.
